Non-standard residues stand in square brackets, D forms with d. Residues, ends and D or L forms follow the SMILES beside them. *: point of attachment. 1Nal = N[C@@H](Cc1cccc2ccccc12)C(=O)O; Phg = N[C@H](C(=O)O)c1ccccc1; Boc = CC(C)(C)OC(=O)*

The test has as its target T1, Cholecystokinin receptor type A (Cavia porcellus, UniProt Q63931).
T1 sequence (Q63931 whole entry): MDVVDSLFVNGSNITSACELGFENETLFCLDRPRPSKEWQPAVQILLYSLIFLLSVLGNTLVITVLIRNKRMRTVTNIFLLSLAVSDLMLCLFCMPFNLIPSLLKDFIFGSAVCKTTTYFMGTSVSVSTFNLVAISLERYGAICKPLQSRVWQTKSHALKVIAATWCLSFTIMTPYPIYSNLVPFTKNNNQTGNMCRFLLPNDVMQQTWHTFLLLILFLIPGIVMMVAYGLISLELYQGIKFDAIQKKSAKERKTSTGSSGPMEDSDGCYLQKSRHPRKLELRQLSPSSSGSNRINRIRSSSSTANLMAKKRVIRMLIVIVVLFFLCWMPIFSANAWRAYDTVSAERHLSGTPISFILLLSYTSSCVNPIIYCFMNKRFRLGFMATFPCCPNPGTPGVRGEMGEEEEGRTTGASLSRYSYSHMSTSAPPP
Nature of the test: Tested for the inhibition of [3H]pCCK-8 binding to Cholecystokinin type A receptor in pancreatic membranes of guinea-pig. Type of test: cell membranes.
A word on the Ki: it is a measure of affinity in units of concentration, obtained from inhibition or displacement. A high value points to lower affinity. Take `CCCC[C@@H](NC(=O)CC(=O)N[C@@H](Cc1c[nH]c2ccccc12)C(=O)N(C)[C@@H](CCCC)C(=O)N[C@@H](CC(=O)O)C(=O)N[C@@H](Cc1ccccc1)C(N)=O)NC(=O)[C@H](Cc1ccc(CS(=O)(=O)O)cc1)NC(=O)OC(C)(C)C`: affinity was put at a Ki of 1.1 µM.
As for `CC(C)(C)OC(=O)N[C@@H](Cc1c[nH]c2ccccc12)C(=O)N[C@@H](Cc1ccccc1)C(=O)N[C@@H](CC(=O)O)C(=O)N[C@@H](Cc1cccc2ccccc12)C(N)=O` (Boc-WFD[1Nal]-NH2), the figure is 2.4 µM; as for `CC(C)(C)OC(=O)N[C@@H](Cc1c[nH]c2ccccc12)C(=O)N[C@H](C(=O)N[C@@H](CC(=O)O)C(=O)N[C@@H](Cc1cccc2ccccc12)C(N)=O)c1ccccc1` (Boc-W[Phg]D[1Nal]-NH2), 1.1 µM.
As for `CN(C)C(=O)[C@H](Cc1cccc2ccccc12)NC(=O)[C@H](CC(=O)O)NC(=O)[C@@H](NC(=O)[C@H](Cc1c[nH]c2ccccc12)NC(=O)OC(C)(C)C)c1ccccc1` (Boc-W[Phg]D[1Nal]-NMe2), the figure is 1 µM.

Source of the values: ChEMBL document CHEMBL1127004, “Structure-based design and pharmacological properties of potent selective and systemically active CCK-B peptidomimetics” (Bioorg Med Chem Lett, 1993).
